# Test results from PMC8242268, “Transcriptomic and Proteomic Analysis of Mannitol-metabolism-associated Genes in Saccharina japonica” (Genomics, Proteomics & Bioinformatics, 2020).
# Key:
# SjaM1PDH2 = biological target: T1, SjaM1PDH2 (Saccharina japonica, UniProt A0A2Z4BWZ7); assay: F6P reduction kinetics, Lineweaver-Burk; format: biochemical; conditions: apparent; co-substrate NADH
# T1 construct: codon-optimized synthetic gene, pET32a (EcoRI/NotI), E. coli BL21(DE3), His-resin purified
# T1 sequence (A0A2Z4BWZ7 1-355): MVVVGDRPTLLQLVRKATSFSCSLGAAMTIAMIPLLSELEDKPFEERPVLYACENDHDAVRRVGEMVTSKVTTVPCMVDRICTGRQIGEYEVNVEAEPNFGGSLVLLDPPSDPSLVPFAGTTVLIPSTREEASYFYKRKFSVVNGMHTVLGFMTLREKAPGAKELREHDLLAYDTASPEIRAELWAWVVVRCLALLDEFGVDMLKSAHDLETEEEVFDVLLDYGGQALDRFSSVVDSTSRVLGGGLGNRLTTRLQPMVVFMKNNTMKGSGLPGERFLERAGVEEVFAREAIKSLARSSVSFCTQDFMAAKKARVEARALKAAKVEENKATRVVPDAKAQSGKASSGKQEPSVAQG
# SjaM1Pase2 = biological target: T2, SjaM1Pase2 (Saccharina japonica, UniProt A0A2Z4BXC0); assay: M1P phosphatase kinetics, Lineweaver-Burk; format: biochemical; conditions: apparent; 100 mM Tris-HCl buffer
# T2 construct: codon-optimized synthetic gene, pGEX-6p-1 (EcoRI/NotI), E. coli BL21(DE3), GST-resin purified
# T2 sequence (A0A2Z4BXC0 1-327): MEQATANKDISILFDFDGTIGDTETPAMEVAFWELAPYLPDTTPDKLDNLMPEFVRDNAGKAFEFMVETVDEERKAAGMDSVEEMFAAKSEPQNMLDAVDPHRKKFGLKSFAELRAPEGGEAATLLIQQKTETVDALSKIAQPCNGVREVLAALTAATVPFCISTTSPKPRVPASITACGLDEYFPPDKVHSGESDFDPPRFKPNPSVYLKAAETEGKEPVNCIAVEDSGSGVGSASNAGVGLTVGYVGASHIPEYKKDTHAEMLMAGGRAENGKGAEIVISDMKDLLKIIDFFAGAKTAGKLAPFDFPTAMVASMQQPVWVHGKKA
Compound,Km (SjaM1PDH2) [mM],Km (SjaM1Pase2) [µM]
O=P(O)(O)OC[C@H]1OC(O)(CO)[C@@H](O)[C@@H]1O (some centres unmarked) [F6P],2.02,–
O=P(O)(O)OC[C@@H](O)[C@@H](O)[C@H](O)[C@H](O)CO [M1P],–,20
